Test results as given in patent publication US12264173B2 (GILEAD SCIENCES, INC., priority 2020, dated 2025).
Like-named read-outs stand apart in the source and are kept apart here.

How the values were obtained:
Format in all cases: cell-based
RSV strain A2 = assay: microbe, parasite or virus in culture; settings: Table 3, HEp-2 cells, RSV A2, 4 days, read-out: RSV HEp-2 EC50
Method in brief: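 Cytopathic-effect protection assay: HEp-2 cells (50,000/mL) infected with pre-titered RSV A2 onto 3-fold serial compound dilutions, incubated 4 days at 37° C. Cell viability read by CellTiter-Glo luminescence; percent inhibition derived against 0% and 100% virus-inhibition controls.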

RSV A2 = assay: RSV NHBE EC50 (RSV A2 antiviral assay in NHBE cells); settings: read-out: RSV NHBE EC50
Method in brief: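 Primary bronchial epithelial cells attach overnight, receive 3-fold serial compound dilutions, and are infected with RSV A2 at 1×10^4.5 tissue culture infectious doses/mL. Protection from virus-induced cell death is scored by luminescent viability assay after 4 days.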

HRV16 = HRV16 HeLa EC50 (cytopathic effect in H1-HeLa cells); settings: read-out: HRV16 HeLa EC50
Method in brief: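 H1-HeLa cells seeded one day before, given 3-fold serial compound dilutions in triplicate just prior to infection with pre-titrated virus. Incubated 96 h at 33 °C/5% CO2; protection from cytopathic effect read as viability by CellTiter-Glo luminescence, normalised to infected untreated (0%) and uninfected (100%) controls.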

DENV2 replicon = assay: DENV-2 Huh-7 Rep EC50 (replicon luminescence)
Method in brief: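 Huh-7 cells carrying a DENV2 replicon, 5,000 cells/well, were incubated with dosed compounds for 48 h at 37° C. EnduRen live-cell substrate was added 1.5 h before luminescence reading. EC50 came from dose-response against DMSO-only wells.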

[1] = tested on: Dengue serotype 2 New Guinea C (NGC) strain; assay: DENV-2 Huh-7 EC50 (qPCR in Huh7 cells)
Description: Huh7 (Human hepatocarcinoma 7) cells were maintained in 10% FCS-containing DMEM complete media. On the day of the assay, cells were trypsinized (0.1% Trypsin-EDTA), washed and infected for 2 hours in serum-free DMEM with Dengue serotype 2 New Guinea C (NGC) strain at MOI=0.1 with gentle agitation at 37° C. After 2 hours, cells were washed with serum-free media and suspended in 10% FCS-containing DMEM (Gibco, supplemented with sodium pyruvate, NEAA, Penicillin-Streptomycin). 10^5 cells were plated in triplicate in 96-well plates with compounds dispensed at graded doses (Hewlett-Packard D300 Digital Dispenser). All wells were normalized to 0.25% DMSO. At 48 hours, cells were washed with 1×PBS and all supernatants removed. Total RNA was extracted using RNEasy 96 plates (Qiagen) and used to generate first-strand cDNA using XLT cDNA 5× Supermix (QuantaBio). cDNA was used as a template in a Taqman qPCR duplex reaction specific to DENV2 viral and GAPDH gene expression. EC50 values were determined using Prism Graphpad software, with normalization to a positive control and no compound negative control wells.

HCV Rep 1B = HCV Rep 1B EC50 (replicon luciferase)
Description: (§1) Compounds were serially diluted in ten steps of 1:3 dilutions in 384-well plates. All serial dilutions were performed in four replicates per compound within the same 384-well plate. […] To each well of a black polystyrene 384-well plate (Greiner Bio-one, Monroe, NC), 90 μL of cell culture medium (without Geneticin) containing 2000 suspended HCV replicon cells was added with a Biotek μFlow workstation. For compound transfer into cell culture plates, 0.4 μL of compound solution from the compound serial dilution plate was transferred to the cell culture plate on a Biomek FX workstation. The DMSO concentration in the final assay wells was 0.44%. The plates were incubated for 3 days at 37° C. with 5% CO2 and 85% humidity. The HCV replicon assay was a multiplex assay, able to assess both cytotoxicity and antireplicon activity from the same well. The CC50 assay was performed first. The media in the 384-well cell culture plate was aspirated, and the wells were washed four times with 100 μL of PBS each, using a Biotek ELX405 plate washer. A volume of 50 μL of a solution containing 400 nM calcein AM (Anaspec, Fremont, CA) in 1×PBS was added to each well of the plate with a Biotek μFlow workstation. The plate was incubated for 30 min at room temperature before the fluorescence signal (excitation 490 nm, emission 520 nm) was measured with a Perkin-Elmer Envision plate reader. The EC50 assay was performed in the same wells as the CC50 assay. The calcein-PBS solution in the 384-well cell culture plate was aspirated with a Biotek ELX405 plate washer. A volume of 20 μL of Dual-Glo luciferase buffer (Promega, Madison, WI) was added to each well of the plate with a Biotek μFlow Workstation. The plate was incubated for 10 min at room temperature. A volume of 20 μL of a solution containing a 1:100 mixture of Dual-Glo Stop & Glo substrate (Promega, Madison, WI) and Dual-Glo Stop & Glo buffer (Promega, Madison, WI) was added to each well of the plate with a Biotek μFlow Workstation. The plate was then incubated at room temperature for 10 min before the luminescence signal was measured with a Perkin-Elmer Envision Plate Reader.

HCV Rep 2A = HCV Rep 2A EC50 (replicon luciferase)
Description: as §1

[2] = tested on: Dengue 2, New Guinea strain (NGC); assay: DENV moDC EC50 (qPCR in human monocyte-derived dendritic cells); settings: Dengue virus, Dendritic cell; Table 3; human moDCs, 48 hours
Description: Human monocyte-derived dendritic cells (moDCs) were derived from CD14+ monocytes (AllCells) cultured in Human Mo-DC Differentiation medium containing GM-CSF and IL-4 (Miltenyi Biotec). On day 7, moDCs were harvested by mechanical disruption, washed and suspended in serum-free RPMI. moDCs were infected with Vero-derived Dengue 2, New Guinea strain (NGC) at a MOI=0.1 for two hours in serum-free RPMI with gentle agitation at 37° C. Cells were washed and resuspended in 10% serum-containing RPMI (Gibco, supplemented with sodium pyruvate, NEAA, Penicillin-Streptomycin). […] were plated in triplicate in 96-well plates with compounds dispensed at graded doses (Hewlett-Packard D300 Digital Dispenser). All wells were normalized to 0.25% DMSO. At 48 hours, cells were washed with 1×PBS and all supernatants removed. Total RNA was extracted using RNEasy 96 plates (Qiagen) and used to generate first-strand cDNA using XLT cDNA 5× Supermix (QuantaBio). cDNA was used as a template in a Taqman qPCR duplex reaction specific to DENV2 viral and GAPDH gene expression. EC50 values were determined using Prism Graphpad software, with normalization to a positive control and no compound negative control wells.

[3] = Table 3, NHBE cells, RSV A2, 4 days
[4] = human respiratory syncytial virus, NHBE, Table 5 comparative activity, 2',3'-OH vs -OC(O)iPr
[5] = HeLa, Table 5 comparative activity, 2',3'-OH vs -OC(O)iPr
[6] = Dengue virus, Huh-7, Table 5 comparative activity, 2',3'-OH vs -OC(O)iPr, read-out: DENV Huh7 EC50
[7] = human respiratory syncytial virus, HEp-2, 96 h
[8] = human respiratory syncytial virus, NHBE, 96 h, Table 3, NHBE cells, RSV A2, 4 days
[9] = Table 4, replicon cells, 3 days, read-out: HCV Rep 1B EC50
[10] = Table 4, replicon cells, 3 days, read-out: HCV Rep 2A EC50

Molecule `CCC(=O)O[C@H]1[C@H](c2ccc3c(N)ncnn23)O[C@](C#N)(CO[P@](=O)(N[C@@H](C)C(=O)OCC2CC2)Oc2ccccc2)[C@H]1OC(=O)CC` [Example 100] has an EC50 (RSV strain A2) of 58 nM, an EC50 (RSV A2; [3]) of 13 nM and an EC50 (HRV16; Table 3, H1-HeLa cells, 96 h) of 147 nM. It also gave an EC50 (DENV2 replicon; Table 3, Huh-7 DENV2 replicon cells, 48 hours, read-out: DENV-2 REP Huh7 EC50) of 18800 nM and an EC50 ([1]; Table 3, Huh7 cells, 48 hours, read-out: DENV-2 Huh7 EC50) of 1130 nM.
`COC(=O)[C@H](C)N[P@](=O)(OC[C@@]1(C#N)O[C@@H](c2ccc3c(N)ncnn23)[C@H](O)[C@@H]1O)Oc1ccccc1` [Example 52, methyl ((S)-(((2R,3S,4R,5S)-5-(4-aminopyrrolo[2,1-f][1,2,4]triazin-7-yl)-2-cyano-3,4-dihydroxytetrahydrofuran-2-yl)methoxy)(phenoxy)phosphoryl)-L-alaninate] was tested, and the EC50 (RSV A2; [4]) was 252 nM, the EC50 (HRV16; [5]) was 1250 nM and the EC50 [1, 6] was 5480 nM. The EC50 (HCV Rep 1B; Hepatitis C virus, Table 5 comparative activity, 2',3'-OH vs -OC(O)iPr, read-out: HCV Rep1B EC50) was 3960 nM and the EC50 (HCV Rep 2A; Hepatitis C virus, Table 5 comparative activity, 2',3'-OH vs -OC(O)iPr, read-out: HCV Rep2A EC50) was 7460 nM.
Work on `CCOC(=O)[C@H](C)N[P@](=O)(OC[C@@]1(C#N)O[C@@H](c2ccc3c(N)ncnn23)[C@H](O)[C@@H]1O)Oc1ccccc1` [Example 29, Ethyl ((S)-(((2R,3S,4R,5S)-5-(4-aminopyrrolo[2,1-f][1,2,4]triazin-7-yl)-2-cyano-3,4-dihydroxytetrahydrofuran-2-yl)methoxy)(phenoxy)phosphoryl)-L-alaninate] yielded an EC50 (RSV A2; [4]) of 932 nM, an EC50 (HRV16; [5]) of 678 nM and an EC50 (DENV2 replicon; Dengue virus, DENV2, Huh-7, read-out: DENV Rep EC50) of 36100 nM. It also gave an EC50 [1, 6] of 1880 nM.
`COC(=O)[C@H](C)N[P@](=O)(OC[C@@]1(C#N)O[C@@H](c2ccc3c(/N=C/N4CCN(C)CC4)ncnn23)[C@H](OC(=O)C(C)C)[C@@H]1OC(=O)C(C)C)Oc1ccccc1` [Example 261, (2R,3S,4S,5S)-2-cyano-2-((((S)-(((S)-1-methoxy-1-oxopropan-2-yl)amino)(phenoxy)phosphoryl)oxy)methyl)-5-(4-(((E)-(4-methylpiperazin-1-yl)methylene)amino)pyrrolo[2,1-f][1,2,4]triazin-7-yl)tetrahydrofuran-3,4-diyl bis(2-methylpropanoate)] showed an EC50 (RSV strain A2; [7]) of 42 nM, an EC50 (RSV A2; [8]) of 13 nM and an EC50 (DENV2 replicon; Dengue virus, DENV2, Huh-7, 48 h, read-out: DENV-2 REP Huh7 EC50) of 2340 nM. For the same molecule, the EC50 (HCV Rep 1B; Hepatitis C virus, 72 h, Table 4, replicon cells, 3 days, read-out: HCV Rep 1B EC50) was 524 nM and the EC50 (HCV Rep 2A; Hepatitis C virus, 72 h, Table 4, replicon cells, 3 days, read-out: HCV Rep 2A EC50) was 1220 nM.
`CCC(=O)O[C@H]1[C@H](c2ccc3c(N)ncnn23)O[C@](C#N)(COP(=O)(N[C@@H](C)C(=O)OCC2CCC2)N[C@@H](C)C(=O)OCC2CCC2)[C@H]1OC(=O)CC` [Example 125, ((2R,3S,4R,5S)-5-(4-aminopyrrolo[2,1-f][1,2,4]triazin-7-yl)-2-cyano-3,4-dipropionatetetrahydrofuran-2-yl)methyl bis-cyclobutylmethyl L-alaninate phosphate] was tested, and the EC50 (RSV strain A2; [7]) was 700 nM, the EC50 (RSV A2; [8]) was 79 nM and the EC50 (HRV16; 96 h, Table 3, H1-HeLa cells, 96 h) was 2030 nM. For the same molecule, the EC50 (DENV2 replicon; Dengue virus, DENV2, Huh-7, 48 h, read-out: DENV-2 REP Huh7 EC50, Table 3, Huh-7 DENV2 replicon cells, 48 hours) was 48700 nM and the EC50 [2] was 20700 nM.
With `CC(C)C(=O)OC1C(c2ccc3c(N)ncnn23)OC(C#N)(COP(=O)(NC(C)C(=O)OC2CCN(C)C2)Oc2ccccc2)C1OC(=O)C(C)C` (single isomer, unassigned) [Example 234] the EC50 (RSV strain A2) was 57 nM, the EC50 (RSV A2; [3]) was 30 nM and the EC50 (HCV Rep 1B; [9]) was 905 nM. The EC50 (HCV Rep 2A; [10]) was 1820 nM.
`CC(C)C(=O)O[C@H]1[C@H](c2ccc3c(N)ncnn23)O[C@](C#N)(COP(=O)(N[C@@H](C)C(=O)OC2COC2)Oc2ccccc2)[C@H]1OC(=O)C(C)C` (single isomer, unassigned) [Example 185] was tested, and the EC50 (RSV strain A2) was 26 nM, the EC50 (HCV Rep 1B; [9]) was 217 nM and the EC50 (HCV Rep 2A; [10]) was 730 nM.
